Read-outs that look alike come from different tables or passages of the source.
Tests used:
Assay type in all cases: in vivo
[1] = tested on: ducksalad (Heteranthera limosa); experiment: Test B flooded paddy test; conditions: Heteranthera limosa, Flood, 250 g ai/ha; scale of 0 to 100 where 0 is no effect and 100 is complete control; read-out: Ducksalad plant response rating
How it was run: (§1)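 Evaluation by eye, against controls, occurred 13–15 d post-treatment in a greenhouse, using a 0 (no effect) to 100 (complete control) scale. Application was into the paddy water, 3 cm deep over the soil, on 2-leaf plants.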

[2] = tested on: rice (Oryra sativa); experiment: Test B flooded paddy test; conditions: Oryza sativa, Flood, 250 g ai/ha; scale of 0 to 100 where 0 is no effect and 100 is complete control; read-out: Rice plant response rating
How it was run: as §1

[3] = tested on: barnyardgrass (Echinochloa crus-galli); experiment: Test B flooded paddy test; conditions: Echinochloa crus-galli, Flood, 250 g ai/ha; scale of 0 to 100 where 0 is no effect and 100 is complete control; read-out: Barnyardgrass plant response rating
How it was run: as §1

[4] = tested on: sedge, umbrella (small-flower umbrella sedge, Cyperus difformis); experiment: Test B flooded paddy test; conditions: Cyperus difformis, Flood, 250 g ai/ha; scale of 0 to 100 where 0 is no effect and 100 is complete control; read-out: Sedge, Umbrella plant response rating
How it was run: as §1

[5] = tested on: Kochia (Kochia scoparia); experiment: Test A preemergence; conditions: Bassia scoparia, pre-emergence, 240 h, preemergence, read-out: Plant response rating, Kochia
How it was run: (§2)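 Preemergence directed soil spray on seeded pots, or postemergence application to plants 2–10 cm, one- to two-leaf. Solvent mixture non-phytotoxic, with surfactant. Scored ~10 d later, visually, 0–100 vs untreated.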

[6] = tested on: ryegrass, Italian (Italian ryegrass, Lolium multiflorum); experiment: Test A preemergence; conditions: Lolium multiflorum, pre-emergence, 240 h, 125 g ai/ha, preemergence; visual rating after approx. 10 d; 0 to 100 scale where 0 is no effect and 100 is complete control; read-out: Plant response rating, Ryegrass, Italian
How it was run: as §2

[7] = tested on: pigweed (Amaranthus retroflexus); experiment: Test A preemergence; conditions: Amaranthus retroflexus, pre-emergence, 240 h, read-out: Plant response rating, Pigweed; for pest or weed control at 125 g/ha: 125 g ai/ha; for pest or weed control at 500 g/ha: 500 g ai/ha
[8] = tested on: ragweed (common ragweed, Ambrosia elatior); experiment: Test A preemergence; conditions: Ambrosia artemisiifolia, pre-emergence, 240 h, preemergence, read-out: Plant response rating, Ragweed
How it was run: as §2

[9] = tested on: giant foxtail (Setaria faberii); experiment: Test A preemergence; conditions: Setaria faberi, pre-emergence, 240 h, read-out: Plant response rating, Foxtail, Giant; for pest or weed control at 125 g/ha: 125 g ai/ha; for pest or weed control at 500 g/ha: 500 g ai/ha
How it was run: as §2

[10] = tested on: barnyardgrass (Echinochloa crus-galli); experiment: Test A preemergence; conditions: Echinochloa crus-galli, pre-emergence, 240 h, read-out: Plant response rating, Barnyardgrass; for pest or weed control at 125 g/ha: 125 g ai/ha; for pest or weed control at 500 g/ha: 500 g ai/ha
How it was run: as §2

[11] = tested on: ryegrass, Italian (Italian ryegrass, Lolium multiflorum); experiment: Test A postemergence; conditions: Lolium multiflorum, post-emergence, 240 h, 125 g ai/ha, postemergence; visual injury after approximately 10 d; 0 to 100 scale (0 no effect, 100 complete control); read-out: Plant response rating, Ryegrass, Italian
How it was run: as §2

[12] = tested on: blackgrass (Alopecurus myosuroides); experiment: Test A postemergence; conditions: Alopecurus myosuroides, post-emergence, 240 h, 125 g ai/ha, postemergence; visual injury after approximately 10 d; 0 to 100 scale (0 no effect, 100 complete control); read-out: Plant response rating, Blackgrass
How it was run: as §2

[13] = tested on: ragweed (common ragweed, Ambrosia elatior); experiment: Test A postemergence; conditions: Ambrosia artemisiifolia, post-emergence, 240 h, 125 g ai/ha, postemergence; visual injury after approximately 10 d; 0 to 100 scale (0 no effect, 100 complete control); read-out: Plant response rating, Ragweed
How it was run: as §2

[14] = tested on: wheat (Triticum aestivum); experiment: Test A postemergence; conditions: Triticum aestivum, post-emergence, 240 h; for plant injury at 125 g/ha: 125 g ai/ha; for plant injury at 500 g/ha: 500 g ai/ha, visual injury, approx. 10 d
How it was run: as §2

[15] = 125 g ai/ha, visual rating after approx. 10 d, 0 to 100 scale where 0 is no effect and 100 is complete control
[16] = 500 g ai/ha, 0 to 100 scale, 0 = no effect, 100 = complete control
[17] = preemergence, visual rating after approx. 10 d, 0 to 100 scale where 0 is no effect and 100 is complete control
[18] = preemergence, 0 to 100 scale, 0 = no effect, 100 = complete control
[19] = preemergence, 0 to 100 scale (0 no effect, 100 complete control)
[20] = Preemergence, 0 to 100 scale (0 no effect, 100 complete control)
[21] = Postemergence, visual rating about 10 d after treatment, read-out: Wheat plant response rating (0 to 100 scale)
[22] = Postemergence, 0 to 100 scale (0 no effect, 100 complete control), read-out: Plant response rating, Wheat

Q: What does the source list for `CN1CC(c2cccc(OC/C=C/Cl)c2)C(C(=O)Nc2cccc(F)c2F)C1=O` (centres unmarked) [Compound 772]?
A: pest or weed control at 250 g/ha [1]: 75%; pest or weed control at 250 g/ha [2]: 0%; pest or weed control at 250 g/ha [3]: 0%; pest or weed control at 250 g/ha [4]: 0%; pest or weed control at 125 g/ha [5, 15]: 0%; pest or weed control at 500 g/ha [5, 16]: 30%; pest or weed control at 125 g/ha [6]: 0%; pest or weed control at 125 g/ha [7, 17]: 0%; pest or weed control at 500 g/ha [7, 18]: 0%; pest or weed control at 125 g/ha [8, 15]: 0%; pest or weed control at 500 g/ha [8, 16]: 0%; pest or weed control at 125 g/ha [9, 17]: 50%; pest or weed control at 500 g/ha [9, 18]: 90%; pest or weed control at 125 g/ha [10, 17]: 0%; pest or weed control at 500 g/ha [10, 18]: 40%; pest or weed control at 125 g/ha [11]: 0%; pest or weed control at 125 g/ha [12]: 0%; pest or weed control at 125 g/ha [13]: 0%; plant injury at 125 g/ha ([14]; postemergence, visual injury after approximately 10 d, 0 to 100 scale (0 no effect, 100 complete control), read-out: Plant response rating, Wheat): 0%

Q: What does the source list for `O=C1NCC(c2ccccc2)C1C(=O)Nc1cc(F)ccc1F` (centres unmarked) [Compound 1359]?
A: pest or weed control at 500 g/ha [7, 19]: 0%; pest or weed control at 125 g/ha [7, 20]: 0%; pest or weed control at 500 g/ha [9, 19]: 0%; pest or weed control at 125 g/ha [9, 20]: 0%; pest or weed control at 500 g/ha [10, 19]: 0%; pest or weed control at 125 g/ha [10, 20]: 0%; plant injury at 125 g/ha [14, 21]: 0%; plant injury at 500 g/ha [14, 22]: 0%

Q: With `O=C1NCC(c2ccccc2)C1C(=O)Nc1ccc(C(F)(F)F)cc1` (centres unmarked) [Compound 1362] as the compound, how does the pest or weed control at 500 g/ha [7, 19] read?
A: 0%

Q: What about the pest or weed control at 125 g/ha [7, 20] of the same compound?
A: 0%

Q: And the pest or weed control at 500 g/ha [9, 19]?
A: 0%

Q: And the pest or weed control at 125 g/ha [9, 20]?
A: 0%

Q: What about the pest or weed control at 500 g/ha [10, 19] of the same compound?
A: 0%

Q: What about the pest or weed control at 125 g/ha [10, 20] of the same compound?
A: 0%

Q: What about the plant injury at 125 g/ha [14, 21] of the same compound?
A: 0%

Q: And the plant injury at 500 g/ha [14, 22]?
A: 0%

Source: patent US12077503B2, “Substituted cyclic amides and their use as herbicides” (FMC CORPORATION, priority 2015, dated 2024)
